Data on 5 compounds can be found in US20080220056A1, “Treatment for liver disease” (UNIVERSITY OF SOUTHAMPTON, priority 2002, published 2008).

Data set [1] concerns caspase 3 activity in 10 day culture activated hepatic stellate cells. As to the kind of experiment: Caspase 3 activity (pNA liberation) of hepatic stellate cells treated with 5-HT2 antagonists. The format is cell-based, rat. To be noted: for effect of serotonin on the specific caspase 3 activity: LY 53,857 100 μM 24 hours, Methiothepin maleate 10 μM 3 hours, with serotonin (100 M [sic]). Here is the method: (§1) The mRNA for the 5-HT2B receptor was only found in 10 day culture activated hepatic stellate cells, whereas the mRNA for the 5-HT2C receptor was absent from all cells investigated. […] 10 day culture activated hepatic stellate cells were treated with a range of 5-HT2 antagonists (including Spiperone HCl, Methiothepin Maleate and LY 53,857) at various concentrations and time periods and nuclear morphology was assessed using Acridine Orange (1 μg/ml) staining as described in Examples 1 and 2. […] Caspase 3 activity (as defined by pNA liberation) was subsequently determined at the predetermined optimal times and doses as described in Examples 1 and 2. 10 day culture activated hepatic stellate cells were also treated with the antagonist together with the 5-HT2 agonist serotonin (5-hydroxytryptamine 100 µM) to see if any modification of the caspase 3 specific activity could be achieved by direct receptor binding site competition.

In data set [2] the test system is 10 day culture activated hepatic stellate cells. Put plainly: Nuclear morphology (acridine orange) of hepatic stellate cells treated with 5-HT2 antagonists. The format is cell-based, rat. Here is the method:
as §1

The subject of data set [3] is caspase 3 activity in rat hepatic stellate cells. As to the kind of experiment: Caspase 3 (Ac-DEVD-pNA cleavage) activity in rat hepatic stellate cells. Format: cell-based. To be noted: 200 μmol/L chlorpromazine, three hours. Here is the method:
Hepatic stellate cells cultured in 100 mm diameter dishes (Greiner, Frickenhausen, Germany) were harvested and pelleted by centrifugation. The medium supernatant was discarded and the cell pellet was washed in 1 mL of ice-cooled phosphate buffered saline (PBS). Caspase 3 (DEVDase) activity was determined using a colorimetric CaspACE kit (Promega, Southampton, England) using the manufacturer's instructions.
Caspase 3 (Ac-DEVD-pNA cleavage) activity was then examined in control and gliotoxin-treated hepatic stellate cells. Culture activated rat hepatic stellate cells (14 days) in 100 mm diameter plates were treated with 0.05% (vol/vol) DMSO, 1.5 μmol/L gliotoxin, 20 μmol/L Z-VAD-FMK or 200 μmol/L chlorpromazine for three hours. The cells were then harvested for examination of caspase 3 activity as outlined in the materials and methods sections.

Data set [4] has as its system rat hepatic stellate cells. Put plainly: Trypan blue exclusion of treated rat hepatic stellate cells. The settings on record: rat HSC; 1.5 μmol/L gliotoxin or 200 μmol/L chlorpromazine. The format is cell-based.
Data set [5] concerns rat hepatocytes. Put plainly: DNA laddering in rat hepatocytes. Format: cell-based. The settings on record: four hours; 50 μmol/L gliotoxin, 200 μmol/L chlorpromazine, 200 μmol/L methapyrilene, 10 ng/mL TNF-α with cycloheximide. The method, then:
Hepatic stellate cells cultured in 35-mm diameter dishes (Greiner) were harvested, pelleted by centrifugation and DNA fragmentation determined as outlined elsewhere (Elsharkawy et al., Hepatology (1999) 30:761-769). Propidium Iodide Flow-Activated Cell Sorting Analysis Detached cells were pelleted by centrifugation, washed in PBS, and resuspended in HYPO buffer (0.1% wt/vol) Na3Citrate and 0.1% (wt/vol) Triton™ X-100 containing […] propidium iodide and incubated for 1 hour. The cells were then analyzed by fluorescence-activated cell sorter (FACS) with a Becton Dickinson (San Jose, Calif.) FACScan instrument using a 488 nm excitation wavelength with a band pass filter set at 530 nm. Attached cells were scraped in HYPO buffer after washing cells with PBS.
DNA laddering was also used to compare the effect of gliotoxin, chlorpromazine, methapyrilene and also the combination of TNF-α with cycloheximide on hepatocytes and hepatic stellate cells.

Data set [6] has as its system rat hepatocytes. As to the kind of experiment: Rat hepatocyte viability by attachment and trypan blue exclusion. The format is cell-based. To be noted: 200 μmol/L, four hours. Here is the method:
Rat hepatocytes were isolated by collagenase perfusion essentially as previously described. (Harvey et al., Biochemical J., (1998) 331:273-281). Hepatocytes were cultured as outlined for hepatic stellate cells except that they were initially seeded onto collagen coated plates in William's medium E supplemented with 10% fetal calf serum and 1 μg/mL insulin for the first 2 hours.
Cells were treated with gliotoxin dissolved in DMSO vehicle (added to medium from a 2000-fold molar concentrated stock). Control cells received DMSO vehicle only (i.e., 0.05% vol/vol). All other additions to culture medium were made from concentrated stocks dissolved in DMSO or by direct addition to culture medium. Protein contents of wells were determined using the Lowry assay (Lowry et al., J. Biol. Chem., (1951)193: 265-275).
The effect of various compounds on cell viability and attachment was determined. Viability of rat hepatocytes as judged by attachment and 0.1% (wt/vol) trypan blue exclusion after four hours treatment with: […]

For data set [7], the system named is human hepatic stellate cells. As to the kind of experiment: Hepatic stellate cell apoptosis by acridine orange staining and counting (cycloheximide or serum deprivation), human cells. The settings on record: human HSC; protein at 142.5 ng/ml. Format: cell-based. The method, then:
(§2) Human hepatic stellate cells were extracted from the margins of normal human liver resected for colonic metastatic disease as previously described (Iredale et al., Clin. Sci., (1995) 89: 75-81). Rat hepatic stellate cells were extracted from normal rat liver by Pronase and collagenase digestion and purified by centrifugal elutriation as described (Arthur et al., J. Clin. Invest., (1989) 84:1076-1085). Extracted hepatic stellate cells were cultured on plastic until they were activated to a myofibroblastic phenotype after 7 to 10 days. Human and rat hepatic stellate cells were used for experiments after activation in primary culture or before fourth passage. Cells were cultured in Dulbecco's modified Eagle's medium in the presence of 16% fetal calf serum and antibiotics.
Apoptosis of hepatic stellate cells was induced by absolute serum deprivation, cycloheximide treatment (Issa et al., Gut (2001) 48: S48-S57), or exposure to nerve growth factor as previously described (Trim et al., Am. J. Pathol., (2000) 156, 1235-1243). Hepatic stellate cells were cultured in 24-well tissue culture plates. […] Following a 4 hour incubation at 37° C., nuclear morphology was assessed by adding acridine orange to each well (final concentration 1 μg/ml) and observing the cells under blue fluorescence. The total number of apoptotic bodies was counted, and any apoptotic bodies floating in the supernatant were included by racking up the objective lens. The total number of cells per field was counted, and an apoptotic index was calculated. Each condition was performed in duplicate, and three high power fields were counted for each well. […] To examine for autocrine effects, hepatic stellate cells were incubated for 18 hours with azide-free polyclonal neutralizing antibodies to TIMP-1 and a nonimmune IgG control (Santa Cruz Biotechnology, Inc., Santa Cruz, Calif.), and responses were assessed by acridine orange staining and counting.
Apoptosis was assessed by acridine orange staining. […]

Data set [8] deals with rat hepatic stellate cells. Put plainly: Hepatic stellate cell apoptosis by acridine orange staining and counting (cycloheximide or serum deprivation), rat cells. Format: cell-based. The settings on record: rat HSC; protein at 142.5 ng/ml. The method, then:
as §2
Apoptosis of hepatic stellate cells was induced by absolute serum deprivation, cycloheximide treatment (Issa et al., Gut (2001) 48: S48-S57), or exposure to nerve growth factor as previously described (Trim et al., Am. J. Pathol., (2000) 156, 1235-1243). Hepatic stellate cells were cultured in 24-well tissue culture plates. Rat and human hepatic stellate cells were exposed to proapoptotic stimuli with and without recombinant TIMP-1 (Biogenesis, Poole, UK) and other manipulations as detailed below. Following a 4 hour incubation at 37° C., nuclear morphology was assessed by adding acridine orange to each well (final concentration 1 μg/ml) and observing the cells under blue fluorescence. The total number of apoptotic bodies was counted, and any apoptotic bodies floating in the supernatant were included by racking up the objective lens. The total number of cells per field was counted, and an apoptotic index was calculated. Each condition was performed in duplicate, and three high power fields were counted for each well. […] To examine for autocrine effects, hepatic stellate cells were incubated for 18 hours with azide-free polyclonal neutralizing antibodies to TIMP-1 and a nonimmune IgG control (Santa Cruz Biotechnology, Inc., Santa Cruz, Calif.), and responses were assessed by acridine orange staining and counting.
Apoptosis was assessed by acridine orange staining. […] A normal cell lies adjacent to the apoptotic body. This technique was used to determine the percentage of apoptotic hepatic stellate cells following exposure to cyclohexamide in the presence or absence of TIMP-1. Hepatic stellate cells were exposed to 50 μM cyclohexamide and 0, 1, 10, 100 or 200 ng/ml of TIMP-1. Cells treated with serum alone were used as controls. […] Bovine serum albumin, used as a carrier for the TIMP-1 had no antiapoptotic effect.

For data set [9], the system named is caspase-3 activity in hepatic stellate cells. As to the kind of experiment: Caspase-3 activity in cycloheximide-treated hepatic stellate cells. The settings on record: wild type TIMP-1 or T2G mutant N-TIMP-1. The format is cell-based. The method, then:
Apoptosis was quantified by a colorimetric assay for caspase-3 activity (Promega) according to the manufacturer's instructions.
Caspase-3 is a central caspase in the proapoptotic cascade (Hengartner, Nature (2000) 407, 770-776) and can be used as an alternative assay to assess apoptosis. Hepatic stellate cells were cultured in 50 μM cycloheximide with TIMP-1 at a concentration of 0, 1, 10, or 100 ng/ml. Controls where cells were incubated with either the caspase 3 inhibitor benzyloxycarbonyl-Val-Ala-Asp-fluoromethylketone or serum alone were also performed. Data are expressed as mean ±S.E. and are presented as percentage of control given the arbitrary value of 100%. * indicates p<0.001; n=3. […] Although the mean caspase-3 activity of the cells treated with 10 ng/ml TIMP-1 was slightly lower than that treated with 100 ng/ml of TIMP-1, this was not statistically significant (p=0.67 by Student's t test).

In the case of `CC(O)C(C)OC(=O)[C@@H]1C[C@@H]2c3cccc4c3c(cn4C(C)C)C[C@H]2N(C)C1` (stereo partly shown) [LY 53,857], the “specific caspase 3 activity” value in data set [1] (100 μM for 24 hours (LY 53,857)) is given as 1 μmol pNA liberated/hour/μg protein. For the same compound, the “effect of serotonin on the specific caspase 3 activity” value in data set [1] is listed as “not significantly reduced by the presence of serotonin”. In data set [2] (24 hours at 100 μM (LY 53,857)), this compound registered a maximal nuclear condensation of about 100%.

As for `CSc1ccc2c(c1)C(N1CCN(C)CC1)Cc1ccccc1S2.O=C(O)/C=C\C(=O)O` (stereo not shown) [Methiothepin maleate], the “specific caspase 3 activity” value in data set [1] (10 μM for 3 hours (Methiothepin maleate)) is 0.9 μmol pNA liberated/hour/μg protein. Further, the “effect of serotonin on the specific caspase 3 activity” value in [1] is “not significantly reduced by the presence of serotonin”. Also, the maximal nuclear condensation in data set [2] (3 hours at 10-100 μM (Methiothepin maleate)) turned out to be 100%.

Regarding `O=C(CCCN1CCC2(CC1)C(=O)NCN2c1ccccc1)c1ccc(F)cc1` [Spiperone], the “specific caspase 3 activity” value in data set [1] (100 μM for 24 hours (Spiperone)) is listed as 6.5 μmol pNA liberated/hour/μg protein. The “specific caspase 3 activity in the presence of serotonin” value in data set [1] (Spiperone 100 μM for 24 hours with serotonin (100 M [sic])) is reported as 4 μmol pNA liberated/hr/μg protein. In data set [2] (24 hours at 100 μM (Spiperone)), this compound registered a maximal nuclear condensation of 80%.

With `CN(C)CCCN1c2ccccc2Sc2ccc(Cl)cc21` [chlorpromazine], the “increase in caspase 3 activity” value in [3] is listed as “not seen”. For the same compound, in [4], the “0.1% (wt/vol) trypan blue exclusion (membrane integrity)” value is “unable to exclude 0.1% (wt/vol) trypan blue”. In addition, the “cleavage of hepatocyte DNA to a nucleosomal ladder” value in [5] is “only hepatocytes treated with TNF-α and cycloheximide cleaved their DNA to a nucleosomal ladder”. In data set [6], the “hepatocytes that do not exclude trypan blue, compared with 50 μmol/L gliotoxin” value is given as “a level similar”.

Take “wild type N-TIMP-1: wild type (active) TIMP-1 protein compared with the T2G mutant”: the “apoptosis induced by cycloheximide (acridine orange)” value in data set [7] and in data set [8] was “significantly inhibited apoptosis” in each case. Besides, the “caspase-3 activity in cycloheximide-treated hepatic stellate cells” value in data set [9] is “significantly reduced caspase-3 activity”.
